Source: US20010023293A1, “2-hydroxyphenyl benzotriazoles as uv-a/b filters” (ROCHE VITAMINS INC., priority 2000, published 2001)

Tests used:
[1] = UV absorption spectrum in CH2Cl2; type: physicochemical
[2] = Miscibility with cosmetic solvents such as Cétiol LC (liposolubility); details: such as Cétiol LC (Cocoyl caprylate caprate)
[3] = Photostability under irradiation at high dilution with a Heraeus 150 W Hg-lamp; details: irradiation at high dilution (50 ppm)

| SMILES | UV absorption maximum, first (UV-B) band [1] | UV absorption maximum, second (UV-A) band [1] | melting point | Miscibility with cosmetic solvents [2] | Photostability [3] |
| --- | --- | --- | --- | --- | --- |
| CCCCC=CC(C)c1cc(C)cc(-n2nc3ccccc3n2)c1O (centres unmarked) [8% byproduct, 2-(benzotriazole-2-yl)-4-methyl-6-(3-octen-2-yl)-phenol] | 306 nm | 344 nm |  |  |  |
| CCCC(CC)c1cc(C(C)(C)CC(C)(C)C)cc(-n2nc3ccccc3n2)c1O (centres unmarked) [Example 4, 2-(benzotriazole-2-yl)-4-(1,1,3,3-tetramethylbutyl)-6-(3-hexyl)-phenol] | 306 nm | 346 nm |  |  |  |
| CCCCCC(CC)c1cc(C)cc(-n2nc3ccccc3n2)c1O (centres unmarked) [Example 3, 2-(benzotriazole-2-yl)-4-methyl-6-(3-octyl)-phenol] | 306 nm | 346 nm |  |  |  |
| C=CC(CCC)c1cc(C(C)(C)CC(C)(C)C)cc(-n2nc3ccccc3n2)c1O (centres unmarked) [Example 2, 2-(benzotriazole-2-yl)-4-(1,1,3,3-tetramethylbutyl)-6-(1-hexen-3-yl)-phenol] | 305 nm | 343 nm | 80 to 81 °C |  |  |
| C=CC(CCCCC)c1cc(C)cc(-n2nc3ccccc3n2)c1O (centres unmarked) [Example 1, 2-Benzotriazole-2-yl-4-methyl-6-(1-octen-3-yl)-phenol] | 306 nm | 344 nm | 37 to 38 °C | easily mixable | photostable |
